US7307063B2, “Melanocortin metallopeptides for treatment of sexual dysfunction” (Palatin Technologies, Inc., priority 2001, dated 2007)
Non-standard residues stand in square brackets, D forms with d. No end group written: not given here. 1Nal = N[C@@H](Cc1cccc2ccccc12)C(=O)O; 2Nal = N[C@@H](Cc1ccc2ccccc2c1)C(=O)O; Nle = CCCC[C@H](N)C(=O)O

Tests used:
MC4-R = target: T1, MC4-R (Homo sapiens, UniProt P32245); assay: Competitive binding assay: inhibition of 125I-NDP-α-MSH binding to HEK-293 membranes with cloned human receptor subtype 4; settings: Table 6, mean of triplicate
T1 construct: expressed in transfected cells; host or cells: HEK-293
In short: (§1)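 Radioligand displacement: Re-metallopeptide at a chosen concentration versus 125I-NDP-α-MSH on receptor membranes. Values are percent inhibition of specific binding, defined using 1 μM α-MSH; added peptides were run in triplicate and averaged.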

hMC5-R = target: T2, hMC5-R (Homo sapiens, UniProt P33032); assay: Competitive binding assay: inhibition of 125I-NDP-α-MSH binding to HEK-293 membranes with cloned human receptor subtype 5; settings: Table 6; 1 μM; mean of triplicate
T2 construct: expressed in transfected cells; host or cells: HEK-293
Method: Rhenium-complexed metallopeptides of the formulas given in Table 1 were prepared, with the metallopeptides complexed with rhenium using the rhenium transfer agent ReOCl3(PPh3)2 in the presence of 1,8-Diazabicyclo[5,4,0] undec-7-ene as a base, as disclosed in International Application PCT/US00/16396, filed Jun. 14, 2000, Melanocortin Metallopeptide Constructs, Combinatorial Libraries and Applications, incorporated by reference herein. Affinities of compounds were measured using membranes from HEK-293 cells containing cloned human melanocortin receptor subtypes 3, 4 and 5. MC1-R membranes were isolated from B16—F10 mouse melanoma cells. The assay tube also contained a chosen concentration of the test peptide of this invention, complexed to a rhenium metal ion as indicated, for determining its efficacy in inhibiting the binding of ^125I-NDP-α-MSH to its receptor. Non-specific binding was measured by complete inhibition of binding of ^125I-NDP-α-MSH in the assay with the presence of 1 μM α-MSH. 100% specific binding was defined as the difference in radioactivity (cpm) bound to cell membranes in the absence and presence of 1 μM α-MSH. The cpm obtained in presence of test compounds were normalized with respect to 100% specific binding to determine the percent inhibition of ^125I-NDP-α-MSH binding.
Peptide sequences set forth in Table 6 were prepared using conventional synthetic means. The resulting sequences were rhenium-complexed to form metallopeptides, with the metallopeptides complexed with rhenium using the rhenium transfer agent ReOCl3(PPh3)2 in the presence of 1,8-Diazabicyclo[5,4,0] undec-7-ene as a base. Percent inhibition was determined as in Example 1 using the Re-complexed metallopeptides, using the same methods as described therein. All measures are means of triplicate determinations.

hMC2-R = target: T3, hMC2-R (Homo sapiens, UniProt P41968); assay: Competitive binding assay of additional compounds, Table 6 hMC2-R; settings: 1 μM, mean of triplicate
T3 construct: expressed in transfected cells; host or cells: HEK-293

MC1-R = target: T4, MC1-R (Mus musculus, UniProt Q01727); assay: Competitive binding assay: inhibition of 125I-NDP-α-MSH binding to membranes from B16-F10 mouse melanoma cells; settings: Table 6, mean of triplicate
T4 construct: MC1-R membranes were isolated from B16—F10 mouse melanoma cells; endogenous in cells; host or cells: B16-F10 mouse melanoma cells
In short: as §1

T4 sequence (Q01727 whole entry): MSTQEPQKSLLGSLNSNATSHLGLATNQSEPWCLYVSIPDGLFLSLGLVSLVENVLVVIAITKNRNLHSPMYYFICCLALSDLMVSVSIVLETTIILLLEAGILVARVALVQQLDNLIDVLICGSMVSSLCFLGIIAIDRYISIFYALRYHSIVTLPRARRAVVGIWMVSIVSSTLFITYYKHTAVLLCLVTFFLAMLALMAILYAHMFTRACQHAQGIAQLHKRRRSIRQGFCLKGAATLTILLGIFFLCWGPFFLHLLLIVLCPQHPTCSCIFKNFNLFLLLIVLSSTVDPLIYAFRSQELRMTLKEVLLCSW
T2 sequence (P33032 whole entry): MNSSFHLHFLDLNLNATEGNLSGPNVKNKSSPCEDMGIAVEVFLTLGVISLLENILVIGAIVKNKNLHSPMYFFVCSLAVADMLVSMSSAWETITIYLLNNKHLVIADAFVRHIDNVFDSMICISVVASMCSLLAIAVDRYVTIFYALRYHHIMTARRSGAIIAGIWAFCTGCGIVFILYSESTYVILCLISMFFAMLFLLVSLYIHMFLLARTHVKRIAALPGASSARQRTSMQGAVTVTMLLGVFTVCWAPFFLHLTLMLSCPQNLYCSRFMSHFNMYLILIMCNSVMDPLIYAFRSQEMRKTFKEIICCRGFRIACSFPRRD
T1 sequence (P32245 whole entry): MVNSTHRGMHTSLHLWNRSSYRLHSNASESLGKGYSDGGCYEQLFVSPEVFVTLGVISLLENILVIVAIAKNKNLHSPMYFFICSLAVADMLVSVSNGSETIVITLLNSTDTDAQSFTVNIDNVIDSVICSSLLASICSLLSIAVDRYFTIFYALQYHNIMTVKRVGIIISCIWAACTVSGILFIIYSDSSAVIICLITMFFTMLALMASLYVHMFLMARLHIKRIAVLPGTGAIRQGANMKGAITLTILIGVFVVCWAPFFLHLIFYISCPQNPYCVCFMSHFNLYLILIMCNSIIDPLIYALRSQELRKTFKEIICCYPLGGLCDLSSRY
T3 sequence (P41968 whole entry): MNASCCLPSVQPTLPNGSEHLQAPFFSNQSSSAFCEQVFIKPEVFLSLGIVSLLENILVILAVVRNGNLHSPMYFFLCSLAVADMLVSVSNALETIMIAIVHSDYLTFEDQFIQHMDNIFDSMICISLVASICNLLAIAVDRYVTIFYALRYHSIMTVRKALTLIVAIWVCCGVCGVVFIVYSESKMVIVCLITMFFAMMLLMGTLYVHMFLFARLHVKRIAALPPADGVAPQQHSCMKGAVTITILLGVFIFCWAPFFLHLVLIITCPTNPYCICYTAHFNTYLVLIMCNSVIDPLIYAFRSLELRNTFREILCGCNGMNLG

% Inhibition of Binding hMC4-R (MC4-R; 1 μM)	% Inhibition of Binding hMC5-R (hMC5-R)	% Inhibition of Binding hMC2-R (hMC2-R)	% Inhibition of Binding MC1-R (MC1-R; 1 μM)	% Inhibition of Binding hMC4-R (MC4-R; 0.1 μM)	% Inhibition of Binding hMC2-R (hMC2-R; listed as NH2(CH2)6CO-Ser(Bzl)-D-Phe(4′-Cl)-Arg-Trp-Cys-NH2, 1 µM)	% Inhibition of Binding MC1-R (MC1-R; 0.1 μM)	Substance
89%	83%	40%	99%				Ac-Nle-Ala-His-D-Phe-Arg-Nal 2′-Cys-NH2
16%	71%	0%	58%				Ac-[Nle]AF[dF]RCW-NH2
16%	0%	0%	52%				Ac-[Nle]AH[dF]R[dH]C-NH2
18%	87%	4%	81%				Ac-[Nle]AL[dF]RCW-NH2
11%	7%	8%	30%				Ac-[Nle]AT[dF]RCW-NH2
9%	62%	0%	45%				Ac-[Nle]AW[dF]RCW-NH2
0%	44%	0%	66%				Ac-[Nle]AY[dF]RCW-NH2
2%	28%	0%	77%				Ac-[Nle]H[dF]RCW-NH2
21%	71%	0%	59%				Aic-D-Phe-Arg-Cys-Trp-NH2
18%	38%	4%	9%				Aic-D-Phe-Arg-Trp-Cys-NH2
22%	2%	0%	28%				Allo-Thr-D-Phe-Arg-Trp-Cys-NH2
0%	1%	0%	39%				Amb-D-Phe-Arg-Cys-Trp-NH2
0%	5%	0%	39%				Amb-D-Phe-Arg-Trp-Cys-NH2
4%	8%	0%	7%				Amc-D-Phe-Arg-Cys-Trp-NH2
8%	41%	1%	0%				D-Igl-D-Nal 2′-Arg-Cys-NH2
97%	85%	73%	27%				D-Igl-D-Nal 2′-Arg-Trp-Cys-NH2

% Inhibition of Binding hMC4-R (MC4-R; 1 μM)	% Inhibition of Binding hMC5-R (hMC5-R)	% Inhibition of Binding hMC2-R (hMC2-R)	% Inhibition of Binding MC1-R (MC1-R; 1 μM)	% Inhibition of Binding hMC4-R (MC4-R; 0.1 μM)	% Inhibition of Binding hMC2-R (hMC2-R; listed as NH2(CH2)6CO-Ser(Bzl)-D-Phe(4′-Cl)-Arg-Trp-Cys-NH2, 1 µM)	% Inhibition of Binding MC1-R (MC1-R; 0.1 μM)	Substance
8%	48%	0%	22%				D-Nal 1′-D-Phe-Arg-Cys-Trp-NH2
13%	43%	0%	3%				D-Nal 1′-D-Phe-Arg-Trp-Cys-NH2
0%	52%	7%	50%				D-Nal 2′-D-Phe-Arg-Cys-Trp-NH2
5%	13%	0%	11%				D-Nal 2′-D-Phe-Arg-Trp-Cys-NH2
13%	39%	3%	43%				D-Tiq-D-Phe-Arg-Cys-Trp-NH2
34%	23%	0%	5%				D-Tiq-D-Phe-Arg-Trp-Cys-NH2
62%	79%	37%	24%				Hept-Ser(Bzl)-D-Phe(4′-Cl)-Arg-D-Trp-Cys-NH2
88%	100%	85%	85%				Hept-Ser(Bzl)-D-Phe(4′-Cl)-Arg-Trp-Cys-NH2
4%	19%	0%	0%				Idc-D-Phe-Arg-Cys-Trp-NH2
11%	0%	0%	12%				Idc-D-Phe-Arg-Trp-Cys-NH2
96%	95%	69%	14%				NH2(CH2)6CO-Ser(Bzl)-D-Nal 2′-Arg-Trp-Cys-NH2
95%	100%	70%	22%				NH2-(CH2)6-CO-Ser(Bzl)-D-Nal 2′-Arg-Nal 2′-Cys-NH2
94%	100%	90%	74%	68%	87%	28%	NH2-(CH2)6-CO-Ser(Bzl)-D-Phe(4′-Cl)-Arg-Trp-Cys-NH2
12%	45%	6%	0%				Nal 1′-D-Phe-Arg-Cys-Trp-NH2 ([1Nal][dF]RCW-NH2; also: metal complex)
15%	68%	3%	11%				Nal 1′-D-Phe-Arg-Trp-Cys-NH2 ([1Nal][dF]RWC-NH2; also: metal complex)
21%	63%	13%	39%				Nal 2′-D-Phe-Arg-Cys-Trp-NH2 ([2Nal][dF]RCW-NH2; also: metal complex)
